According to patent US20140031217A1, “HERBICIDAL COMPOSITIONS COMPRISING 4-AMINO-3-CHLORO-5-FLUORO-6-(4-CHLORO-2-FLUORO-3-METHOXYPHENYL)PYRIDINE-2-CARBOXYLIC ACID OR A DERIVATIVE THEREOF AND AUXIN TRANSPORT INHIBITORS” (DOW AGROSCIENCES LLC, priority 2012, published 2014):

Tests used:
SCPMA = assay: In-water applied (paddy) greenhouse weed control, SCPMA; format: in vivo
Protocol: (§1) Weed seeds or nutlets of the desired test plant species were planted in puddled soil (mud) prepared by mixing a shredded, non-sterilized mineral soil (50.5 percent silt, 25.5 percent clay, and 24 percent sand, with a pH of about 7.6 and an organic matter content of about 2.9 percent) and water at a 1:1 volumetric ratio. The prepared mud was dispensed in 365 mL aliquots into 16-ounce (oz.) non-perforated plastic pots with a surface area of 86.59 square centimeters (cm^2) leaving a headspace of 3 centimeters (cm) in each pot. Mud was allowed to dry overnight prior to planting or transplanting. Rice seeds were planted in Sun Gro MetroMix® 306 planting mixture, which typically has a pH of 6.0 to 6.8 and an organic matter content of about 30 percent, in plastic plug trays. Seedlings at the second or third leaf stage of growth were transplanted into 840 mL of mud contained in 32-oz. non-perforated plastic pots with a surface area of 86.59 cm^2 4 days prior to herbicide application. The paddy was created by filling the headspace of the pots with 2.5 to 3 cm of water. When required to ensure good germination and healthy plants, a fungicide treatment and/or other chemical or physical treatment was applied. The plants were grown for 4-22 days in a greenhouse with an approximate 14 h photoperiod which was maintained at about 29′C during the day and 26° C. during the night. Nutrients were added as Osmocote® (19:6:12, N:P:K+minor nutrients) at 2 g per 16-oz. pot and 4 g per 960-mL 32-oz. pot. Water was added on a regular basis to maintain the paddy flood, and supplemental lighting was provided with overhead metal halide 1000-Watt lamps as necessary. The plants were employed for testing when they reached the second or third true leaf stage.
(§2) Treatments consisted of the acid or esters of 4-amino-3-chloro-5-fluoro-6-(4-chloro-2-fluoro-3-methoxy-phenyl)pyridine-2-carboxylic acid (compound A) each formulated as an SC and various herbicidal components alone and in combination. Forms of compound A were applied on an acid equivalent basis.
(§3) Other herbicidal components were applied on an active ingredient basis and included auxin transport inhibiting (ATI) herbicides chlorflurenol-methyl (technical material), chlorflurenol (technical material), diflufenzopyr (technical material), dilfufenzopyr sodium (technical material), flurenol-methyl (technical material,) and naptalam (technical material).
(§4) Treatment requirements for each compound or herbicidal component were calculated based upon the rates being tested, the concentration of active ingredient or acid equivalent in the formulation, an application volume of 2 mL per component per pot, and an application area of 86.59 cm^2 per pot.
(§5) For formulated compounds, a measured amount was placed in an individual 100 or 200 mL glass vial and was dissolved in a volume of 1.25% (v/v) Agri-Dex® crop oil concentrate to obtain application solutions.
(§6) For technical grade compounds, a weighed amount was placed in an individual 100 to 200 mL glass vial and was dissolved in a volume of acetone to obtain concentrated stock solutions. […] The concentrated stock solutions obtained were diluted with an equivalent volume of an aqueous mixture containing 2.5% (v/v) crop oil concentrate so that the final application solutions contained 1.25% (v/v) crop oil concentrate.
(§7) Applications were made by injecting with a pipetter appropriate amounts of the application solutions, individually and sequentially, into the aqueous layer of the paddy. Control plants were treated in the same manner with the solvent blank. Applications were made so that all treated plant material received the same concentrations of acetone and crop oil concentrate.
(§8) The treated plants and control plants were placed in a greenhouse as described above and water was added as needed to maintain a paddy flood. […]

ECHOR = assay: In-water applied (paddy) greenhouse weed control, ECHOR; format: in vivo, Echinochloa oryzoides (Ard.) Fritsch
Protocol: as §1, §2, §3, §4, §5, §6, §7, §8

ECHCG [1] = assay: In-water applied (paddy) greenhouse weed control, ECHCG; format: in vivo, Echinochloa crusgalli (L.) Beauv.
Protocol: as §1, §2, §3, §4, §5, §6, §7, §8

DIGSA = assay: Postemergence foliar-applied greenhouse weed control, DIGSA; format: in vivo, Digitaria sanguinalis (L.) Scop.; conditions: 20 DAA
From the text: (§9) Seeds or nutlets of the desired test plant species were planted in a soil matrix prepared by mixing a loam or sandy loam soil (e.g., 28.6 percent silt, 18.8 percent clay, and 52.6 percent sand, with a pH of about 5.8 and an organic matter content of about 1.8 percent) and calcareous grit in an 80 to 20 ratio. The soil matrix was contained in plastic pots with a volume of 1 quart and a surface area of 83.6 square centimeters (cm^2). When required to ensure good germination and healthy plants, a fungicide treatment and/or other chemical or physical treatment was applied. The plants were grown for 8-22 days in a greenhouse with an approximate 14 h photoperiod which was maintained at about 29° C. during the day and 26° C. during the night. Nutrients (Peters Excel® 15-5-15 5-Ca 2-Mg and iron chelate) were applied in the irrigation solution as needed and water was added on a regular basis. Supplemental lighting was provided with overhead metal halide 1000-Watt lamps as necessary. The plants were employed for testing when they reached the first through fourth true leaf stage.
(§10) Treatments consisted of the acid or esters of 4-amino-3-chloro-5-fluoro-6-(4-chloro-2-fluoro-3-methoxy-phenyl) pyridine-2-carboxylic acid (Compound A), each formulated as an SC (suspension concentrate), and various herbicidal components alone and in combination. Forms of compound A were applied on an acid equivalent basis.
as §3, with “chlorflurenol” for “chlorflurenol-methyl”, “chlorflurenol-methyl” for “chlorflurenol”, “diflufenzopyr” for “dilfufenzopyr”, “material)” for “material,)”
(§11) Treatment requirements were calculated based upon the rates being tested, the concentration of active ingredient or acid equivalent in the formulation, and a 12 mL application volume at a rate of 187 L/ha.
(§12) For treatments comprised of formulated and technical compounds, weighed amounts of the technical materials were placed individually in 25 mL glass vials and dissolved in a volume of 97:3 v/v acetone/DMSO to obtain 12× stock solutions, and measured amounts of the formulated compounds were placed individually in 25 mL glass vials and diluted in a volume of 1.5% (v/v) crop oil concentrate or water to obtain 12× stock solutions. […] Application solutions were prepared by adding an appropriate amount of each stock solution (e.g., 1 mL) and diluted to the appropriate final concentrations with the addition of an appropriate amount of an aqueous mixture of 1.5% (v/v) crop oil concentrate so that the final spray solutions contained 1.25% (v/v) crop oil concentrate. When required, additional water and/or 97:3 v/v acetone/DMSO was added to individual application solutions so that the final acetone and DMSO concentrations of the application solutions being compared were 8.1% and 0.25%, respectively.
(§13) All stock solutions and applications solutions were visually inspected for compound compatibility prior to application. Spray solutions were applied to the plant material with an overhead Mandel track sprayer equipped with an 8002E nozzle calibrated to deliver 187 L/ha over an application area of 0.503 m^2 at a spray height of 18 to 20 inches (46 to 50 cm) above average plant canopy height. Control plants were sprayed in the same manner with the solvent blank.
(§14) The treated plants and control plants were placed in a greenhouse as described above and watered by sub-irrigation to prevent wash-off of the test compounds. After approximately 3 weeks, the condition of the test plants as compared with that of the untreated plants was determined visually and scored on a scale of 0 to 100 percent where 0 corresponds to no injury or growth inhibition and 100 corresponds to complete kill. […]

LEFCH [2] = assay: Postemergence foliar-applied greenhouse weed control, LEFCH; format: in vivo, Leptochloa chinensis (L.) Nees; conditions: 20 DAA
From the text: as §9, §10
as §3, with “chlorflurenol” for “chlorflurenol-methyl”, “chlorflurenol-methyl” for “chlorflurenol”, “diflufenzopyr” for “dilfufenzopyr”, “material)” for “material,)”
as §11, §12, §13, §14

ECHCO = assay: Postemergence foliar-applied greenhouse weed control, ECHCO; format: in vivo, Echinochloa colona (L.) Link; conditions: 20 DAA
From the text: as §9, §10
as §3, with “chlorflurenol” for “chlorflurenol-methyl”, “chlorflurenol-methyl” for “chlorflurenol”, “diflufenzopyr” for “dilfufenzopyr”, “material)” for “material,)”
as §11, §12, §13, §14

ECHCG [3] = assay: Postemergence foliar-applied greenhouse weed control, ECHCG; format: in vivo, Echinochloa crusgalli (L.) Beauv.; conditions: 20 DAA
From the text: as §9, §10
as §3, with “chlorflurenol” for “chlorflurenol-methyl”, “chlorflurenol-methyl” for “chlorflurenol”, “diflufenzopyr” for “dilfufenzopyr”, “material)” for “material,)”
as §11, §12, §13, §14

IPOHE = assay: Postemergence foliar-applied greenhouse weed control, IPOHE; format: in vivo, Ipomoea hederacea Jacq.; conditions: 20 DAA
From the text: as §9, §10
as §3, with “chlorflurenol” for “chlorflurenol-methyl”, “chlorflurenol-methyl” for “chlorflurenol”, “diflufenzopyr” for “dilfufenzopyr”, “material)” for “material,)”
as §11, §12, §13, §14

LEFCH [4] = assay: In-water applied (paddy) greenhouse weed control, LEFCH; format: in vivo, Leptochloa chinensis (L.) Nees; conditions: 20 DAA
Protocol: as §1, §2, §3, §4, §5, §6, §7, §8

CYPIR = assay: Postemergence foliar-applied greenhouse weed control, CYPIR; format: in vivo, Cyperus iria L.; conditions: 20 DAA
From the text: as §9, §10
as §3, with “chlorflurenol” for “chlorflurenol-methyl”, “chlorflurenol-methyl” for “chlorflurenol”, “diflufenzopyr” for “dilfufenzopyr”, “material)” for “material,)”
as §11, §12, §13, §14

CYPRO = assay: In-water applied (paddy) greenhouse weed control, CYPRO; format: in vivo, Cyperus rotundus L.; conditions: 19 DAA
Protocol: as §1, §2, §3, §4, §5, §6, §7, §8

FIMMI = assay: In-water applied (paddy) greenhouse weed control, FIMMI; format: in vivo, Fimbristylis miliacea (L.) Vahl; conditions: 19 DAA
Protocol: as §1, §2, §3, §4, §5, §6, §7, §8

## O=C(O)C1(O)c2ccccc2-c2ccc(Cl)cc21 (centres unmarked) [Chlorflurenol, reference compound]
SCPMA; 22 DAA, 275 gai/ha
  Visual Weed Control (%) Obs: 45%
SCPMA; 22 DAA, 550 gai/ha
  Visual Weed Control (%) Obs: 60%
ECHOR; 22 DAA, 550 gai/ha
  Visual Weed Control (%) Obs: 30%
ECHCG [1]; 22 DAA, 275 gai/ha
  Visual Weed Control (%) Obs: 10%

## COC(=O)C1(O)c2ccccc2-c2ccc(Cl)cc21 (centres unmarked) [Chlorflurenol-Methyl, methyl 2-chloro-9-hydroxy-9H-fluorene-9-carboxylate, reference compound]
SCPMA; 20 DAA, 275 gai/ha
  Visual Weed Control (%) Obs: 75%
SCPMA; 20 DAA, 550 gai/ha
  Visual Weed Control (%) Obs: 80%
DIGSA; 68.75 gai/ha
  Visual Weed Control (%) Obs: 0%
DIGSA; 137.5 gai/ha
  Visual Weed Control (%) Obs: 0%
DIGSA; 275 gai/ha
  Visual Weed Control (%) Obs: 0%
ECHOR; 20 DAA, 275 gai/ha
  Visual Weed Control (%) Obs: 20%
ECHOR; 20 DAA, 550 gai/ha
  Visual Weed Control (%) Obs: 10%
LEFCH [2]; 68.75 gai/ha
  Visual Weed Control (%) Obs: 0%
LEFCH [2]; 137.5 gai/ha
  Visual Weed Control (%) Obs: 10%
LEFCH [2]; 275 gai/ha
  Visual Weed Control (%) Obs: 10%
ECHCO; 68.75 gai/ha
  Visual Weed Control (%) Obs: 0%
ECHCO; 137.5 gai/ha
  Visual Weed Control (%) Obs: 0%
ECHCO; 275 gai/ha
  Visual Weed Control (%) Obs: 0%
ECHCG [3]; 68.75 gai/ha
  Visual Weed Control (%) Obs: 0%
ECHCG [3]; 137.5 gai/ha
  Visual Weed Control (%) Obs: 0%
ECHCG [3]; 275 gai/ha
  Visual Weed Control (%) Obs: 0%
ECHCG [1]; 20 DAA, 275 gai/ha
  Visual Weed Control (%) Obs: 15%
ECHCG [1]; 20 DAA, 550 gai/ha
  Visual Weed Control (%) Obs: 20%
IPOHE; 137.5 gai/ha
  Visual Weed Control (%) Obs: 50%
IPOHE; 275 gai/ha
  Visual Weed Control (%) Obs: 55%
LEFCH [4]; 275 gai/ha
  Visual Weed Control (%) Obs: 0%
LEFCH [4]; 550 gai/ha
  Visual Weed Control (%) Obs: 0%
CYPIR; 68.75 gai/ha
  Visual Weed Control (%) Obs: 0%
CYPIR; 137.5 gai/ha
  Visual Weed Control (%) Obs: 0%
CYPIR; 275 gai/ha
  Visual Weed Control (%) Obs: 0%

## C/C(=N\NC(=O)Nc1cc(F)cc(F)c1)c1ncccc1C(=O)O [Diflufenzopyr sodium]
ECHCG [1]; 19 DAA, 17.5 gai/ha
  Visual Weed Control (%) Obs: 20%
ECHCG [1]; 19 DAA, 35 gai/ha
  Visual Weed Control (%) Obs: 50%
ECHCG [1]; 19 DAA, 70 gai/ha
  Visual Weed Control (%) Obs: 20%
CYPRO; 17.5 gai/ha
  Visual Weed Control (%) Obs: 0%
CYPRO; 35 gai/ha
  Visual Weed Control (%) Obs: 0%
CYPRO; 70 gai/ha
  Visual Weed Control (%) Obs: 10%
FIMMI; 17.5 gai/ha
  Visual Weed Control (%) Obs: 50%
FIMMI; 35 gai/ha
  Visual Weed Control (%) Obs: 55%
FIMMI; 70 gai/ha
  Visual Weed Control (%) Obs: 60%
